# System: Influenza-Viren
# Experiment: Own studies: prophylaxis and therapy of virus infection in mice infected with influenza viruses
# Assay type: in vivo, Mäuse
# Details: per se, without admixed vaccine
# From the text: Aus der Französischen Patentanmeldung Nr. 74 22 909 mit der Publikationsnummer 2 292 486 sind Huramylpeptide vom Typ der Verbindung N-Acetyl-muramyl-L-alanyl-D-isoglutamin ("MDP") bekannt. Diese Verbindungen sind als immunologische Adjuvanzien beschrieben, d.h. sie können in Mischung mit Impfstoffen dazu benützt werden, den Impferfolg zu verbessern. Eigene Untersuchungen, z.B. bei mit Influenza-Viren infizierten Mäusen, haben ergeben, dass N-Acetyl-muramyl-L-alanyl-D-isoglutamin per se, d.h. ohne Beimengung von Impfstoffen, bei der Prophylaxe und Therapie von Virusinfektionen unwirksam ist. Auch ist die Verwendbarkeit strukturell einfacher Muramylpeptide und ihrer Analogen gegen Virusinfektionen bisher nicht beschrieben.
structure (smiles),measurement,value
CC(=O)N[C@H]1C(O)O[C@H](CO)[C@@H](O)[C@@H]1O[C@H](C)C(=O)N[C@@H](C)C(=O)N[C@H](CCC(=O)O)C(N)=O (stereo partly drawn) [N-Acetyl-muramyl-L-alanyl-D-isoglutamin],Wirksamkeit bei der Prophylaxe und Therapie von Virusinfektionen,unwirksam
